Experiment: Encapsulation efficiency by ultracentrifugation and HPLC

SMILES | encapsulation efficiency of CBD (% EE) (active ingredient 1% (w/w), oleic acid and polysorbate 20 preparation) | encapsulation efficiency, THC compared with CBD (tested concentrations 6% and 10% (w/w), oleic acid and polysorbate 20)
C=C(C)[C@@H]1CCC(C)=C[C@H]1c1c(O)cc(CCCCC)cc1O [CBD, cannabidiol] | 80.11% | 
CCCCCc1cc(O)c2c(c1)OC(C)(C)[C@@H]1CCC(C)=C[C@@H]21 [THC, Δ9-tetrahydrocannabinol] |  | generally higher for THC over CBD

Reference: patent US12472219B2, “Encapsulated cannabinoid formulations for transdermal delivery” (Nutrae, LLC, priority 2018, dated 2025)
